Key:
IL-10 = test: LPS-stimulated production of IL-10 by PBMC; type: cell-based
IFN-γ = test: Augmentation of IFN-γ production following TCR activation of T-cells; type: cell-based
Beagle dogs = test: Cardiovascular and respiratory function in anesthetized dogs; details: anesthetized Beagle dogs, 2, 10 and 20 mg/kg infusion via jugular vein, all doses
IL-2 = test: Augmentation of IL-2 production following TCR activation of PBMC; type: cell-based
T-cells = test: Stimulation of T-cell proliferation following primary induction by TCR activation; type: cell-based
[1] = Form A: among anhydrous polymorphs; Form E: in aqueous solvent systems; cited from earlier work

Compound	Effect on production of IL-10 by PBMC (IL-10)	Potency relative to thalidomide in augmenting production of IFN-γ (IFN-γ)	Cardiovascular and respiratory changes compared to vehicle control (Beagle dogs)	Potency relative to thalidomide in augmenting production of IL-2 (IL-2)	Potency relative to thalidomide in stimulating proliferation of T-cells (T-cells)	Relative stability of polymorph [1]
Nc1cccc2c1CN(C1CCC(=O)NC1=O)C2=O (stereo not shown)	increased production	50-100 times	minimal	50-100 times	50-100 times	
Nc1cccc2c1CN(C1CCC(=O)NC1=O)C2=O (stereo not shown) [Form A, 3-(4-amino-1-oxo-1,3 dihydro-isoindol-2-yl)-piperidene-2,6-dione]						most thermodynamically stable anhydrous polymorph
Nc1cccc2c1CN(C1CCC(=O)NC1=O)C2=O (stereo not shown) [Form E, 3-(4-amino-1-oxo-1,3 dihydro-isoindol-2-yl)-piperidene-2,6-dione]						most stable form
